# Assay results: US20100298141A1, “SUBSTITUTED PYRIDINE N-OXIDE HERBICIDES” (E. I. DU PONT DE NEMOURS AND COMPANY, priority 2007, published 2010)
# Legend:
# [1] = test system: barnyardgrass; assay: Test A pre-/postemergence greenhouse test; format: in vivo, Echinochloa crus-galli; conditions: for Barnyardgrass plant response rating: 0 to 100 scale; for Plant response rating, Barnyardgrass: 0 to 100 scale where 0 is no effect and 100 is complete control
# In short: (§1)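 Planting was into mixed loam soil and sand; preemergence treatment followed as a directed soil spray. Concurrently, emerged plants (one- to two-leaf, 2–10 cm) received postemergence applications of identically formulated compound (non-phytotoxic solvent, surfactant). After approximately ten days under greenhouse conditions, injury was judged by eye against untreated plants.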
# [2] = test system: redroot pigweed; assay: Test A pre-/postemergence greenhouse test; format: in vivo, Amaranthus retroflexus; conditions: for Pigweed plant response rating: 0 to 100 scale; for Plant response rating, Pigweed: 0 to 100 scale where 0 is no effect and 100 is complete control
# In short: as §1
# [3] = test system: velvetleaf; assay: Test A pre-/postemergence greenhouse test; format: in vivo, Abutilon theophrasti; conditions: for Velvetleaf plant response rating: 0 to 100 scale; for Plant response rating, Velvetleaf: 0 to 100 scale where 0 is no effect and 100 is complete control
# In short: as §1
# [4] = test system: downy brome; assay: Test C pre-/postemergence test; format: in vivo, Bromus tectorum; conditions: for Plant response rating, Bromegrass, Downy: 31 g ai/ha, scale 0 to 100 (0 no effect, 100 complete control)
# In short: (§2)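 Seeds were planted and treated preemergence with test chemical in a non-phytotoxic solvent mixture containing surfactant. Postemergence applications of the same formulation went onto plants 2 to 18 cm tall (1- to 4-leaf stage). A dash marks no test result.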
# [5] = test system: green foxtail; assay: Test C pre-/postemergence test; format: in vivo, Setaria viridis
# In short: as §2
# [6] = test system: wild oat; assay: Test C pre-/postemergence test; format: in vivo, Avena fatua; conditions: for Plant response rating, Oat, Wild: 31 g ai/ha, scale 0 to 100 (0 no effect, 100 complete control)
# In short: as §2
# [7] = test system: Surinam grass; assay: Test C pre-/postemergence test; format: in vivo, Brachiaria decumbens; conditions: for Plant response rating, Surinam Grass: 31 g ai/ha, scale 0 to 100 (0 no effect, 100 complete control)
# In short: as §2
# [8] = test system: cocklebur; assay: Test C pre-/postemergence test; format: in vivo, Xanthium strumarium; conditions: for Plant response rating, Cocklebur: 31 g ai/ha, scale 0 to 100 (0 no effect, 100 complete control)
# In short: as §2
# [9] = test system: crabgrass; assay: Test C pre-/postemergence test; format: in vivo, Digitaria sanguinalis; conditions: for Plant response rating, Crabgrass, Large: 31 g ai/ha, scale 0 to 100 (0 no effect, 100 complete control)
# In short: as §2
# [10] = test system: giant foxtail; assay: Test C pre-/postemergence test; format: in vivo, Setaria faberii; conditions: for Plant response rating, Foxtail, Giant: 31 g ai/ha, scale 0 to 100 (0 no effect, 100 complete control)
# In short: as §2
# [11] = test system: johnsongrass; assay: Test C pre-/postemergence test; format: in vivo, Sorghum halepense; conditions: for Plant response rating, Johnsongrass: 31 g ai/ha, scale 0 to 100 (0 no effect, 100 complete control)
# In short: as §2
# [12] = test system: kochia; assay: Test C pre-/postemergence test; format: in vivo, Kochia scoparia; conditions: for Plant response rating, Kochia: 31 g ai/ha, scale 0 to 100 (0 no effect, 100 complete control)
# In short: as §2
# [13] = test system: lambsquarters; assay: Test C pre-/postemergence test; format: in vivo, Chenopodium album; conditions: for Plant response rating, Lambsquarters: 31 g ai/ha, scale 0 to 100 (0 no effect, 100 complete control)
# In short: as §2
# [14] = test system: eastern black nightshade; assay: Test C pre-/postemergence test; format: in vivo, Solanum ptycanthum; conditions: for Plant response rating, Nightshade: 31 g ai/ha, scale 0 to 100 (0 no effect, 100 complete control)
# In short: as §2
# [15] = test system: common ragweed; assay: Test C pre-/postemergence test; format: in vivo, Ambrosia elation; conditions: for Plant response rating, Ragweed: 31 g ai/ha, scale 0 to 100 (0 no effect, 100 complete control)
# In short: as §2
# [16] = test system: velvetleaf; assay: Test C pre-/postemergence test; format: in vivo, Abutilon theophrasti; conditions: for Plant response rating, Velvetleaf: 31 g ai/ha, scale 0 to 100 (0 no effect, 100 complete control)
# In short: as §2
# [17] = test system: rice; assay: Test C flooded paddy test; format: in vivo, Oryza sativa; conditions: Flood
# In short: (§3)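 Visual injury ratings against untreated controls, taken 13 to 15 days after compound was added to paddy water standing 3 cm above the soil.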
# [18] = test system: duck salad; assay: Test C flooded paddy test; format: in vivo, Heteranthera limosa; conditions: Flood
# In short: as §3
# [19] = Postemergence, 125 g ai/ha, 0 is no effect, 100 is complete control
# [20] = Postemergence, 500 g ai/ha, 0 is no effect, 100 is complete control
# [21] = Preemergence, 125 g ai/ha, 0 no effect, 100 complete control
# [22] = 62 g ai/ha, Preemergence, scale 0 to 100
# [23] = 125 g ai/ha, preemergence, scale 0 (no effect) to 100 (complete control)
# [24] = preemergence, 250 g ai/ha, scale 0 (no effect) to 100 (complete control)
# [25] = 31 g ai/ha, scale 0 to 100 (0 no effect, 100 complete control)
# [26] = 62 g ai/ha, scale 0 to 100, 0 no effect, 100 complete control, 13 to 15 days
# [27] = 125 g ai/ha, scale 0 to 100, 0 no effect, 100 complete control, 13 to 15 days
# [28] = 250 g ai/ha, scale 0 to 100, 0 no effect, 100 complete control, 13 to 15 days
compound,measurement,setting,value
Cn1nc(C(F)(F)F)c(C(Cl)S(=O)(=O)c2cccc[n+]2[O-])c1OCC(F)(F)F (racemic) [Compound 36],Barnyardgrass plant response rating,[1]; [19],40
same,Barnyardgrass plant response rating,[1]; [20],80
same,Barnyardgrass plant response rating,[1]; [21],100
same,"Plant response rating, Barnyardgrass","[1]; Preemergence, 500 g ai/ha",100
same,Pigweed plant response rating,[2]; [19],10
same,Pigweed plant response rating,[2]; [20],60
same,Pigweed plant response rating,[2]; [21],100
same,"Plant response rating, Pigweed","[2]; Preemergence, 500 g ai/ha",100
same,Velvetleaf plant response rating,[3]; [19],0
same,Velvetleaf plant response rating,[3]; [20],40
same,Velvetleaf plant response rating,[3]; [21],40
same,"Plant response rating, Velvetleaf","[3]; Preemergence, 500 g ai/ha",70
same,"Bromegrass, Downy plant response rating",[4]; [22],0
same,"Bromegrass, Downy plant response rating",[4]; [23],30
same,"Plant response rating, Bromegrass, Downy",[4]; Preemergence,0
same,"Bromegrass, Downy plant response rating",[4]; [24],50
same,"Foxtail, Green plant response rating",[5]; [22],70
same,"Foxtail, Green plant response rating",[5]; [23],75
same,"Foxtail, Green plant response rating",[5]; [24],100
same,"Oat, Wild plant response rating",[6]; [22],30
same,"Oat, Wild plant response rating",[6]; [23],40
same,"Plant response rating, Oat, Wild",[6]; Preemergence,25
same,"Oat, Wild plant response rating",[6]; [24],80
same,Surinam Grass plant response rating,[7]; [22],80
same,Surinam Grass plant response rating,[7]; [23],100
same,"Plant response rating, Surinam Grass",[7]; Preemergence,50
same,Surinam Grass plant response rating,[7]; [24],100
same,Cocklebur plant response rating,[8]; [22],0
same,Cocklebur plant response rating,[8]; [23],0
same,"Plant response rating, Cocklebur",[8]; Preemergence,0
same,Cocklebur plant response rating,[8]; [24],0
same,"Crabgrass, Large plant response rating",[9]; [22],80
same,"Crabgrass, Large plant response rating",[9]; [23],100
same,"Plant response rating, Crabgrass, Large",[9]; Preemergence,65
same,"Crabgrass, Large plant response rating",[9]; [24],100
same,"Foxtail, Giant plant response rating",[10]; [22],50
same,"Foxtail, Giant plant response rating",[10]; [23],100
same,"Plant response rating, Foxtail, Giant",[10]; Preemergence,30
same,"Foxtail, Giant plant response rating",[10]; [24],100
same,Johnsongrass plant response rating,[11]; [22],80
same,Johnsongrass plant response rating,[11]; [23],90
same,"Plant response rating, Johnsongrass",[11]; Preemergence,60
same,Johnsongrass plant response rating,[11]; [24],90
same,Kochia plant response rating,[12]; [23],20
same,"Plant response rating, Kochia",[12]; Preemergence,0
same,Kochia plant response rating,[12]; [24],100
same,Lambsquarters plant response rating,[13]; [22],60
same,Lambsquarters plant response rating,[13]; [23],80
same,"Plant response rating, Lambsquarters",[13]; Preemergence,0
same,Lambsquarters plant response rating,[13]; [24],95
same,Nightshade plant response rating,[14]; [22],70
same,Nightshade plant response rating,[14]; [23],80
same,"Plant response rating, Nightshade",[14]; Preemergence,70
same,Nightshade plant response rating,[14]; [24],80
same,Ragweed plant response rating,[15]; [22],0
same,Ragweed plant response rating,[15]; [23],10
same,"Plant response rating, Ragweed",[15]; Preemergence,0
same,Ragweed plant response rating,[15]; [24],50
same,Velvetleaf plant response rating,[16]; [22],0
same,Velvetleaf plant response rating,[16]; [23],40
same,"Plant response rating, Velvetleaf",[16]; Preemergence,0
same,Velvetleaf plant response rating,[16]; [24],70
same,"Plant response rating, Rice",[17]; [25],0
same,"Plant response rating, Rice",[17]; [26],25
same,"Plant response rating, Rice",[17]; [27],60
same,"Plant response rating, Rice",[17]; [28],75
same,"Plant response rating, Ducksalad",[18]; [25],85
same,"Plant response rating, Ducksalad",[18]; [26],85
same,"Plant response rating, Ducksalad",[18]; [27],90
same,"Plant response rating, Ducksalad",[18]; [28],90
Cc1cc[n+]([O-])c(S(=O)(=O)C(Cl)c2c(C(F)(F)F)nn(C)c2OCC(F)(F)F)c1 (racemic) [Compound 37],Barnyardgrass plant response rating,[1]; [19],30
same,Barnyardgrass plant response rating,[1]; [20],70
same,Barnyardgrass plant response rating,[1]; [21],90
same,"Plant response rating, Barnyardgrass","[1]; Preemergence, 500 g ai/ha",100
same,Pigweed plant response rating,[2]; [19],20
same,Pigweed plant response rating,[2]; [20],50
same,Pigweed plant response rating,[2]; [21],100
same,"Plant response rating, Pigweed","[2]; Preemergence, 500 g ai/ha",100
same,Velvetleaf plant response rating,[3]; [19],0
same,Velvetleaf plant response rating,[3]; [20],10
same,Velvetleaf plant response rating,[3]; [21],40
same,"Plant response rating, Velvetleaf","[3]; Preemergence, 500 g ai/ha",80
same,"Plant response rating, Bromegrass, Downy",[4]; Preemergence,0
same,"Bromegrass, Downy plant response rating",[4]; [24],60
same,"Plant response rating, Foxtail, Green","[5]; Preemergence, 31 g ai/ha, scale 0 to 100 (0 no effect, 100 complete control)",0
same,"Foxtail, Green plant response rating",[5]; [24],100
same,"Plant response rating, Oat, Wild",[6]; Preemergence,0
same,"Oat, Wild plant response rating",[6]; [24],60
same,Surinam Grass plant response rating,[7]; [22],100
same,Surinam Grass plant response rating,[7]; [23],100
same,"Plant response rating, Surinam Grass",[7]; Preemergence,50
same,Surinam Grass plant response rating,[7]; [24],100
same,Cocklebur plant response rating,[8]; [22],0
same,Cocklebur plant response rating,[8]; [23],0
same,"Plant response rating, Cocklebur",[8]; Preemergence,0
same,Cocklebur plant response rating,[8]; [24],0
same,"Crabgrass, Large plant response rating",[9]; [22],80
same,"Crabgrass, Large plant response rating",[9]; [23],100
same,"Plant response rating, Crabgrass, Large",[9]; Preemergence,55
same,"Crabgrass, Large plant response rating",[9]; [24],100
same,"Foxtail, Giant plant response rating",[10]; [22],70
same,"Foxtail, Giant plant response rating",[10]; [23],85
same,"Plant response rating, Foxtail, Giant",[10]; Preemergence,20
same,"Foxtail, Giant plant response rating",[10]; [24],100
same,Johnsongrass plant response rating,[11]; [22],80
same,Johnsongrass plant response rating,[11]; [23],80
same,"Plant response rating, Johnsongrass",[11]; Preemergence,50
same,Johnsongrass plant response rating,[11]; [24],95
same,Kochia plant response rating,[12]; [22],40
same,Kochia plant response rating,[12]; [23],100
same,"Plant response rating, Kochia",[12]; Preemergence,0
same,Kochia plant response rating,[12]; [24],100
same,Lambsquarters plant response rating,[13]; [22],80
same,Lambsquarters plant response rating,[13]; [23],100
same,"Plant response rating, Lambsquarters",[13]; Preemergence,0
same,Lambsquarters plant response rating,[13]; [24],100
same,Nightshade plant response rating,[14]; [22],80
same,Nightshade plant response rating,[14]; [23],85
same,"Plant response rating, Nightshade",[14]; Preemergence,80
same,Nightshade plant response rating,[14]; [24],90
same,Ragweed plant response rating,[15]; [22],0
same,Ragweed plant response rating,[15]; [23],70
same,"Plant response rating, Ragweed",[15]; Preemergence,0
same,Ragweed plant response rating,[15]; [24],80
same,Velvetleaf plant response rating,[16]; [22],0
same,Velvetleaf plant response rating,[16]; [23],10
same,"Plant response rating, Velvetleaf",[16]; Preemergence,0
same,Velvetleaf plant response rating,[16]; [24],70
same,"Plant response rating, Rice",[17]; [25],15
same,"Plant response rating, Rice",[17]; [26],15
same,"Plant response rating, Rice",[17]; [27],25
same,"Plant response rating, Rice",[17]; [28],70
same,"Plant response rating, Ducksalad",[18]; [25],20
same,"Plant response rating, Ducksalad",[18]; [26],40
same,"Plant response rating, Ducksalad",[18]; [27],85
same,"Plant response rating, Ducksalad",[18]; [28],95
